From patent publication US10738024B2, “Compounds for treatment of angiogenesis-mediated diseases” (Indiana University Research and Technology Corporation, priority 2013, dated 2020)

Legend:
[1] = system: HRECs; assay: ALAMARBLUE proliferation assay in HRECs; assay type: cell-based, human; conditions: Homo sapiens, HREC; 50% growth inhibitory concentration, 48 hours, alamarBlue; read-out: GI50 HREC
Experimental: (§1) Particularly, in a 96-well clear bottom black plate, cells (2,500 cells per well) were seeded in a total volume of 100 μL EGM-2. After 24 hours of incubation of the plate at 37° C. and 5% CO2, a DMSO solution of synthetic cremastranone (1) or SH-11052 (2) was added in the concentration range of 0.5 nM to 500 μM (final DMSO concentration=1%). The plate was then further incubated for 48 hours before adding 11.1 μL of ALAMARBLUE® reagent to each well. Four hours after the addition of ALAMARBLUE®, fluorescence readings with excitation and emission wavelengths of 560 nm and 590 nm, respectively, were taken and the data were analyzed in GraphPad Prism software (v. 6.0). Dose response curves were generated and the GI50 values were calculated using the following equation: Y=100/(1+10^(X−Log GI50)).
(§2) For proliferation assays, cells (2500 per well) were seeded in a 96-well clear bottom black polystyrene plate in a total volume of 100 μL. HUVECs and HRECs were grown in EGM-2 and CSC+ media respectively, while 92-1 and Y79 cells were maintained in RPMI+10% FBS, penicillin/streptomycin and RB medium (IMDM+10% FBS+penicillin/streptomycin+10 μg/mL insulin+55 μM β-mercaptoethanol) respectively. After 24 hours of incubation of the plate at 37° C., the compounds were dissolved in DMSO and added in the concentration range of 500 μM to 0.5 nM. The plate was then incubated at 37° C. and 5% CO2 conditions for 48 hours before adding 11.1 μL of alamar blue reagent for each well. Four hours after the addition of ALAMARBLUE® reagent, fluorescence readings with excitation and emission wavelengths of 560 nm and 590 nm respectively were taken and the data was analyzed in GraphPad Prism software. The dose response curves were generated and the GI50 values were calculated using the equation: Y=100/(1+10^(X−Log GI50)) (Table 1).

[2] = system: 92-1 uveal melanoma cells; assay: ALAMARBLUE proliferation assay in 92-1 uveal melanoma cells; assay type: cell-based; conditions: 50% growth inhibitory concentration, 48 hours, alamarBlue
Experimental: as §2

[3] = system: HUVECs; assay: ALAMARBLUE proliferation assay in HUVECs; assay type: cell-based, human; conditions: Homo sapiens, HUVEC, 48 h, 50% growth inhibitory concentration, alamarBlue
Experimental: as §1, §2

[4] = system: Y-79 retinoblastoma cells; assay: ALAMARBLUE proliferation assay in Y-79 retinoblastoma cells; assay type: cell-based; conditions: 50% growth inhibitory concentration, 48 hours
Experimental: as §2

[5] = system: cyclooxygenases 1 and 2; conditions: purified enzymes; cited from earlier work
[6] = system: prostaglandin synthesis; conditions: microsome assay; cited from earlier work
[7] = system: p21^WAF1 (CDKN1A); conditions: natural source compound; cited from earlier work
[8] = system: HUVECs; conditions: cited from earlier work
[9] = system: JNK, p38 MAPK, ERK; conditions: keratinocytes exposed to UV radiation; cited from earlier work
[10] = system: new vessel growth induced by bFGF; conditions: chick chorioallantoic membrane model; cited from earlier work
[11] = system: choroidal neovascularization; conditions: murine; cited from earlier work
[12] = system: retina; conditions: injection of 10 μM into the vitreous of normal adult mice; cited from earlier work
[13] = system: pathogenic neovascularization; conditions: in vivo; cited from earlier work
[14] = system: reactive oxygen species (ROS); conditions: keratinocytes exposed to UV radiation; cited from earlier work
[15] = system: TNF-α, IL-6 and IL-8; conditions: keratinocytes exposed to UV radiation; cited from earlier work
[16] = system: NF-κB; conditions: keratinocytes exposed to UV radiation; cited from earlier work
[17] = system: Cdc2 (CDK1); conditions: cited from earlier work

| SMILES | GI50 [2] [µM] | GI50 [4] [µM] | GI50 [1] [µM] | GI50 [3] [µM] | further results |
| --- | --- | --- | --- | --- | --- |
| COc1ccc(/C=C2\COc3cc(OC)c(OC)c(O)c3C2=O)cc1O [Compound 11q] | 11 | 6 | 7 | 5.4 |  |
| COC(=O)c1cc(/C=C2\COc3cc(OC)c(OC)c(OC)c3C2=O)ccc1OC [Compound 11r] | > 100 | 6 | 5.5 | 3.2 |  |
| COc1ccc(/C=C2\COc3cc(OC)c(OC)c(OC)c3C2=O)cc1F [Compound 11s] | 7 | 10 | 3.2 | 7.6 |  |
| COc1cc2c(c(OC)c1OC)C(=O)/C(=C/c1ccc(OCc3ccccc3)c(OCc3ccccc3)c1)CO2 [Compound 11t] | > 250 | 109 | 160 | 64 |  |
| COc1cc(/C=C2\COc3cc(OC)c(OC)c(OC)c3C2=O)cc(OC)c1OC [Compound 11u] | > 250 | 9 | 16.6 | 10.4 |  |
| COc1cc2c(c(OC)c1OC)C(=O)/C(=C/c1cccc(Cl)c1Cl)CO2 [Compound 11v] | 31 | 18 | 25.6 | 10.4 |  |
| COc1ccc(CC2COc3cc(O)c(OC)c(O)c3C2=O)cc1O (stereo not shown) [cremastranone, 5,7-dihydroxy-3-(3-hydroxy-4-methoxybenzyl)-6-methoxychroman-4-one] |  |  |  |  | function of cyclooxygenases 1 and 2 [5]: without marked effects; prostaglandin synthesis from arachidonic acid [6]: blocked prostaglandin synthesis; expression of p21^WAF1 (CDKN1A) [7]: induces expression; 50% growth inhibitory (GI50) concentration value in HUVEC proliferation assay ([8]; reported for compound isolated from C. appendiculata): low micromolar range; proliferation of HUVECs ([8]; via G2/M phase cell cycle arrest): blockade of the proliferation; phosphorylation of MAPKs (JNK, p38, ERK) [9]: decreased phosphorylation; blocking new vessel growth induced by bFGF [10]: as effective as retinoic acid; blocking pathogenic neovascularization, laser photocoagulation model of choroidal neovascularization [11]: showed efficacy; apoptosis of retinal cells [12]: nor did it induce apoptosis; cytotoxic or inflammatory effects on the retina [12]: no cytotoxic or inflammatory effects; blocking pathogenic neovascularization, oxygen-induced retinopathy model [13]: showed efficacy; production of reactive oxygen species (ROS) [14]: blocked; production of cytokines TNF-α, IL-6 and IL-8 [15]: blocked; nuclear translocation of NF-κB [16]: blocked nuclear translocation; expression of Cdc2 (CDK1) [17]: down-regulated |

More lines, main results first:

| GI50 [2] [µM] | GI50 [4] [µM] | SMILES | GI50 [1] [µM] | GI50 [3] [µM] | further results |
| --- | --- | --- | --- | --- | --- |
| > 250 | 154 | COc1ccc(/C=C2\COc3cc(OC)c(OC)c(OC)c3C2=O)c(OC)c1OC [Compound 11w] | 91 | 45 |  |
| 29 | 8 | COc1cc2c(c(OC)c1OC)C(=O)/C(=C/c1ccccc1[N+](=O)[O-])CO2 [Compound 11x] | 8.6 | 9 |  |
| 145 | 33 | COc1ccc(/C=C2\CCOc3cc(OC)c(OC)c(OC)c3C2=O)cc1O [Compound 12, (E)-4-(3-hydroxy-4-methoxybenzylidene)-6,7,8-trimethoxy-3,4-dihydrobenzo[b]oxepin-5(2H)-one] | 35 | 30 |  |
| 80 | 49 | COc1ccc(/C=C2\Cc3cc(OC)c(OC)c(OC)c3C2=O)cc1O [Compound 13, (E)-2-(3-hydroxy-4-methoxybenzylidene)-5,6,7-trimethoxy-2,3-dihydro-1H-inden-1-one] | 30 | 19 |  |
| 6 | > 500 | COc1ccc(CN2CCc3cc(OC)c(OC)c(OC)c3C2=O)cc1OCc1ccccc1 [Compound 14, 2-(3-(Benzyloxy)-4-methoxybenzyl)-6,7,8-trimethoxy-3,4-dihydroisoquinolin-1(2H)-one] | 103 | 71 |  |
| 78.5 | 13.5 | COc1cc(OC)c2c(c1)OC/C(=C\c1ccc(OC)c(O)c1)C2=O [Compound 15a] | 37 | 17.7 |  |
| > 250 | 4.2 | COc1cc(OC)c2c(c1)OCC(Cc1ccc(OC)c(O)c1)C2=O (stereo not shown) [Compound 15b] | 1.6 | 6.8 |  |
